Measurements: ChEMBL document CHEMBL1201862, “PubChem BioAssay data set” (2004)
The source made the active and inactive calls.

How the values were obtained:
[1] = molecular target: T1, Coagulation factor XII (Homo sapiens, UniProt P00748); type: functional;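 further: activated factor XIIa alpha cleaving a fluorogenic AMC peptide substrate; inhibitor potency from loss of enzyme activity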
T1 sequence (P00748 whole entry): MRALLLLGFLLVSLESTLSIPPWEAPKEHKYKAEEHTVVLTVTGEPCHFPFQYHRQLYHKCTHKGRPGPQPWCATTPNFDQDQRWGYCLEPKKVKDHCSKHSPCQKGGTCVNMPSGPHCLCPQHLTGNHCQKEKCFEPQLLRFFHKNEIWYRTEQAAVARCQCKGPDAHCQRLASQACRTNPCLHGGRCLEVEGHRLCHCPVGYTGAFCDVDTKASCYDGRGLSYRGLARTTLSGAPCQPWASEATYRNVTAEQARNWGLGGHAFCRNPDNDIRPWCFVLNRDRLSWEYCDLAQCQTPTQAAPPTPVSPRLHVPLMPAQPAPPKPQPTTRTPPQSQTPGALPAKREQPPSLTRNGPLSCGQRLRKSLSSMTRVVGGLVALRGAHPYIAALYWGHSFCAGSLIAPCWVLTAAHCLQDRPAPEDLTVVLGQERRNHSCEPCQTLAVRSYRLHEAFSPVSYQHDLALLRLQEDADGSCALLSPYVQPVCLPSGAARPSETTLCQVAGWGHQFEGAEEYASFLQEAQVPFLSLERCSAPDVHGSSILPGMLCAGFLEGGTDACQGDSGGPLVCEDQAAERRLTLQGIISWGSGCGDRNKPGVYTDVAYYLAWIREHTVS

[2] = molecular target: T2, Estrogen receptor (Homo sapiens, UniProt P03372);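 further: potency for inhibiting coactivator peptide recruitment to the receptor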
T2 sequence (P03372 whole entry): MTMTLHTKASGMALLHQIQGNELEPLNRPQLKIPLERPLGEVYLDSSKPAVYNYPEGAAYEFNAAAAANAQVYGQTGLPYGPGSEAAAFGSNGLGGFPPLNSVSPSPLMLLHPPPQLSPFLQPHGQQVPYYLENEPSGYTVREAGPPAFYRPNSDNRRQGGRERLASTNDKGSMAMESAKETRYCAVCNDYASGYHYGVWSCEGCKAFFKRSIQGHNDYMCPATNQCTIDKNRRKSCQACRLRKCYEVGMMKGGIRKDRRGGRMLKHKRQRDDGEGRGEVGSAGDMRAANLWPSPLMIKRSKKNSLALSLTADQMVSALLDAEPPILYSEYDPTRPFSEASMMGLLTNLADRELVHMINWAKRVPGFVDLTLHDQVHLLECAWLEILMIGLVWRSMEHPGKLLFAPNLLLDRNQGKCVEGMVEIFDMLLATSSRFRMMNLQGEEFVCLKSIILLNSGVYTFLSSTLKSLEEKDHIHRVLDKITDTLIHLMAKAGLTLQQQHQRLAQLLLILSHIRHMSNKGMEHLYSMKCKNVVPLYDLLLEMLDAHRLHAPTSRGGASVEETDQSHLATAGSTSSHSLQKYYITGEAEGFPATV

[3] = HGIII-sPLA2 enzyme inhibition potency – biochemical, QFRET, IC50, dose response (AID 743457);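 further: green fluorescence rise as the enzyme cleaves BODIPY PC-A2 in liposomes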
[4] = molecular target: Estrogen receptor beta (Homo sapiens, UniProt Q92731);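 further: recombinant ER-beta bound to coactivator SRC1 peptide in presence of estradiol agonist; inhibitors block coactivator peptide binding and lower the FRET signal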
[5] = A Cell Based Secondary Assay To Explore Cytotoxicity of Compounds that Sensitize Mycobacterium Tuberculosis to Beta-Lactam Antibiotics.; type: functional
[6] = molecular target: T3, Ubiquitin-conjugating enzyme E2 N (Homo sapiens, UniProt P61088); type: functional;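 further: Dose-response confirmation in a TR-FRET assay detecting UBC13-driven polyubiquitin chain formation, inhibition measured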
T3 sequence (P61088 whole entry): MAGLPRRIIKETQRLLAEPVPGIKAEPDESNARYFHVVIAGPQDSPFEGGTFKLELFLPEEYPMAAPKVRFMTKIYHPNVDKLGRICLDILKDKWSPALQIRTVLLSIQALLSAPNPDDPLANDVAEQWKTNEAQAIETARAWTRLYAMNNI

[7] = test system: INS1; assay: INS-1E survival protection against cytokine death – cell-based, luminescence, retest, dose response (AID 449756); type: functional; details: Rattus norvegicus;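 further: cell death triggered by IL-1 beta plus TNF-alpha plus IFN-gamma mixture; protective hits raise ATP signal compared with cytokine alone wells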
[8] = molecular target: T4, Streptokinase A (Streptococcus pyogenes serotype M1, UniProt P10520); assay: viability-normalized secreted streptokinase activity reduction – plasminogen activation absorbance, OD405, dose response (AID 1914); type: functional, Streptococcus pyogenes M1 GAS;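 further: secreted streptokinase activity via plasminogen activation per viability signal from cell pellet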
T4 sequence (P10520 whole entry): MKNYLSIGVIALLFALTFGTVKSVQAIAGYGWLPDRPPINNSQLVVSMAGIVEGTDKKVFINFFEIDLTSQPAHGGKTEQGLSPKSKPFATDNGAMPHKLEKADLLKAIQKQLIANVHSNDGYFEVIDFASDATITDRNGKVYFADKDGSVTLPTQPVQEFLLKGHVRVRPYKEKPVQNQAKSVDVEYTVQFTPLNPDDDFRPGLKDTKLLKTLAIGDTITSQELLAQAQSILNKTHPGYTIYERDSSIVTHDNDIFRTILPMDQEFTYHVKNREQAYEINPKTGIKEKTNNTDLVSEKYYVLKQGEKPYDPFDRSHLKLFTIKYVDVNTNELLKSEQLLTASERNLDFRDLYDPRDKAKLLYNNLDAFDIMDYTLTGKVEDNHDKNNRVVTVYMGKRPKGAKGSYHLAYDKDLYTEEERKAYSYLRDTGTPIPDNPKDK

[9] = test system: Streptococcus; assay: GAS UMAA2166 growth inhibition – luminescence, BacTiterGlo, counter-screen for streptokinase expression inhibitor project, dose response (AID 1915); type: functional, organism-based;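 further: potency for reduction of bacterial viability or growth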
[10] = test system: Streptococcus sp. 'group A'; assay: Streptococcus pyogenes SK(-)GAS viability under kanamycin – luminescence, BacTiterGlo, confirmation, counter-screen for streptokinase expression inhibitor project, dose response (AID 1900); type: functional, organism-based
[11] = molecular target: Induced myeloid leukemia cell differentiation protein Mcl-1 (Homo sapiens, UniProt Q07820); type: functional
[12] = molecular target: Large T antigen (Simian virus 40, UniProt P03070); type: functional, Betapolyomavirus macacae;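 further: Confirmatory-stage PubChem screen for compounds that inhibit SV40 T antigen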
[13] = molecular target: T5, Mannose-6-phosphate isomerase (Homo sapiens, UniProt P34949); assay: MPI inhibition at elevated mannose 6-phosphate – biochemical, fluorescence intensity, high mannose 6-phosphate, primary screen (AID 1220)
T5 sequence (P34949 whole entry): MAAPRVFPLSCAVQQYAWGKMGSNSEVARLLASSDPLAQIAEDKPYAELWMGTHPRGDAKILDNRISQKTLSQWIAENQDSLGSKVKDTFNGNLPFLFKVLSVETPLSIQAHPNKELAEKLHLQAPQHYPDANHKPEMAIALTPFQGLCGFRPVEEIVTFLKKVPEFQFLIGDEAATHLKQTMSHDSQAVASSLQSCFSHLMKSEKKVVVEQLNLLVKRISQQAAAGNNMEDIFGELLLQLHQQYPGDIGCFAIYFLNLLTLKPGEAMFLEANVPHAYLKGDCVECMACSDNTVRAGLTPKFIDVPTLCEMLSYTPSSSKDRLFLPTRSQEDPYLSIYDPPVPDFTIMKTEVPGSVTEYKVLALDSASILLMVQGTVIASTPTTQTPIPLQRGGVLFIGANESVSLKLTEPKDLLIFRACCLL

[14] = molecular target: Cytochrome P450 2C19 (Homo sapiens, UniProt P33261); assay: Cytochrome panel assay with activity outcomes. Panel member name: p450-cyp2c19 Compounds with AC50 equal or less than 10 uM are considered active; type: functional; details: read-out: AC50
[15] = intracellular Trypanosoma cruzi inhibitors in host cells – cell-based, plate reader, cherry-pick samples, set 3, dose response (AID 651818); type: functional;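 further: compounds incubated with infected cells for about four days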
[16] = Luminescence Cell-Based Dose Retest to Confirm Inhibitors of Cancer Stem Cells. [Related pubchem assays (depositor defined):AID2717, AID2721]; type: functional; details: Homo sapiens
[17] = microbe, parasite or virus in culture; type: functional; details: Mycobacterium tuberculosis
[18] = IGROV1 cell killing – plate reader, dry powder samples, PAX8 inhibitor project, dose response (AID 743043); type: functional, cell-based; details: IGROV-1
[19] = molecular target: Paired box protein Pax-8 (Homo sapiens, UniProt Q06710); assay: PAX8 transcriptional activity inhibition in RMG-I – RMG-I cells, luciferase, cherry-pick, dose response (AID 687027); type: functional, cell-based;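 further: luciferase reporter driven by Pax8 target thyroperoxidase promoter measured by SteadyGlo luminescence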
[20] = molecular target: T6, DNA repair protein RAD52 homolog (Homo sapiens, UniProt P43351); type: functional, biochemical
T6 sequence (P43351 whole entry): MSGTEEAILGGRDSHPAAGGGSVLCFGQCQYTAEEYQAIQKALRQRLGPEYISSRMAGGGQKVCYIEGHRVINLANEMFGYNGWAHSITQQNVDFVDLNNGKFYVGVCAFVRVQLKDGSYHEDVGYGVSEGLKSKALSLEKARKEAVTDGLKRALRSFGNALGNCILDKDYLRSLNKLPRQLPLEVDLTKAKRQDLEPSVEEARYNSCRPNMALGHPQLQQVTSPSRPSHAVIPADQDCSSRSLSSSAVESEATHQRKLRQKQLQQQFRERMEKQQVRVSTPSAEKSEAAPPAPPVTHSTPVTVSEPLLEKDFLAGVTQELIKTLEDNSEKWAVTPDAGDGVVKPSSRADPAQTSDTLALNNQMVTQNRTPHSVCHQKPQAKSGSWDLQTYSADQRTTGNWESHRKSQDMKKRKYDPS

Sequence of Estrogen receptor beta (Q92731 whole entry): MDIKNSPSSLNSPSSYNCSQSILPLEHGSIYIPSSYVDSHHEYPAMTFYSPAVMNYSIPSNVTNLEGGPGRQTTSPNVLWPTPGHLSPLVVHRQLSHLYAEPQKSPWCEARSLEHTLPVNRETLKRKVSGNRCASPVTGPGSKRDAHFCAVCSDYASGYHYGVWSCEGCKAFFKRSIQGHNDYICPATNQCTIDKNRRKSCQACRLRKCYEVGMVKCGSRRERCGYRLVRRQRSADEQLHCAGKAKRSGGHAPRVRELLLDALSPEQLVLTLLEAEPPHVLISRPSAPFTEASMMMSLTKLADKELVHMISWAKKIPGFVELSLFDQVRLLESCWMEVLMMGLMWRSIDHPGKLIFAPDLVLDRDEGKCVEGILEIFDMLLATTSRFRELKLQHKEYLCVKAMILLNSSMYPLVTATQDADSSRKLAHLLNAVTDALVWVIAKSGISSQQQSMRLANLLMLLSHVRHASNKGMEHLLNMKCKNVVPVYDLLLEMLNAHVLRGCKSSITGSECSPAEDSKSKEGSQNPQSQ
Sequence of Induced myeloid leukemia cell differentiation protein Mcl-1 (Q07820 whole entry): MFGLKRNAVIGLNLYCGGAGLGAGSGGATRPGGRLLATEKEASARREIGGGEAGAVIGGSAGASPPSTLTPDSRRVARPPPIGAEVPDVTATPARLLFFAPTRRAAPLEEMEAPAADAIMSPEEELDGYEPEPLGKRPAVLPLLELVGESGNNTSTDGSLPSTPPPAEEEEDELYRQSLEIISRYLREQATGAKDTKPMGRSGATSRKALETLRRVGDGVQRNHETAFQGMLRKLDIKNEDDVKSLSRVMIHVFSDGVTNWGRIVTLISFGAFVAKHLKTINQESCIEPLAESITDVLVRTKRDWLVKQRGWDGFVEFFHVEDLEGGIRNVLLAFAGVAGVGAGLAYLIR
Sequence of Paired box protein Pax-8 (Q06710 whole entry): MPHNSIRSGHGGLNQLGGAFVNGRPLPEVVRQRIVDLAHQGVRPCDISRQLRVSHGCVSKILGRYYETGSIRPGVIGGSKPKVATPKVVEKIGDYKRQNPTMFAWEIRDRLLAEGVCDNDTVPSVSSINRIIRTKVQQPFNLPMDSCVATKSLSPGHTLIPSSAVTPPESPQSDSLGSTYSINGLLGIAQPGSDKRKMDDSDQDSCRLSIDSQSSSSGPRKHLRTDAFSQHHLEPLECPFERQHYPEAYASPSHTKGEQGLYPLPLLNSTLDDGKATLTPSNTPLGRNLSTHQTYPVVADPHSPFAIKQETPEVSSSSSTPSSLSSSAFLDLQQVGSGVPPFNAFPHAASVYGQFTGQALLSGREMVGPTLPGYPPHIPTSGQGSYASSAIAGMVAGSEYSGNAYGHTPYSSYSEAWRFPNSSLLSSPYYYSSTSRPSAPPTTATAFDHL
Sequence of Large T antigen (P03070 whole entry): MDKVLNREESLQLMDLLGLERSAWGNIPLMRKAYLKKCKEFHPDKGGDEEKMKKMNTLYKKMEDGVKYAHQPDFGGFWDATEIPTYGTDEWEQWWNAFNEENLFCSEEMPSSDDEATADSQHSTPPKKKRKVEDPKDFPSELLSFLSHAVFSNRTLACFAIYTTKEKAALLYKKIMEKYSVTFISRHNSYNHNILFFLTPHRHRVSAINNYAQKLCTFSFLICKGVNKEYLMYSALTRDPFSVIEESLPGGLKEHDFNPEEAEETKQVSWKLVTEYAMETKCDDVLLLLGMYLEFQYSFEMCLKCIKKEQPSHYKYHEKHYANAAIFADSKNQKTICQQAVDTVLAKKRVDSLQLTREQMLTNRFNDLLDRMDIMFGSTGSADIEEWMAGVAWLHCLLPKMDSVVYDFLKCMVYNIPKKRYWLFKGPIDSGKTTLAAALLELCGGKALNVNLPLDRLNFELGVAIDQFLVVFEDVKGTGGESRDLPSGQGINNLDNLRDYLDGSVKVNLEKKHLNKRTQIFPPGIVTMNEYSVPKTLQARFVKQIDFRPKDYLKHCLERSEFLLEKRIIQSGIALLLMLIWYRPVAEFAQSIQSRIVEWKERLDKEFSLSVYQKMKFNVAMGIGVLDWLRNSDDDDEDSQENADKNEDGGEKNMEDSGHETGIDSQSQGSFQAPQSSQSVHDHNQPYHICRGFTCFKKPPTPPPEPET
Sequence of Cytochrome P450 2C19 (P33261 whole entry): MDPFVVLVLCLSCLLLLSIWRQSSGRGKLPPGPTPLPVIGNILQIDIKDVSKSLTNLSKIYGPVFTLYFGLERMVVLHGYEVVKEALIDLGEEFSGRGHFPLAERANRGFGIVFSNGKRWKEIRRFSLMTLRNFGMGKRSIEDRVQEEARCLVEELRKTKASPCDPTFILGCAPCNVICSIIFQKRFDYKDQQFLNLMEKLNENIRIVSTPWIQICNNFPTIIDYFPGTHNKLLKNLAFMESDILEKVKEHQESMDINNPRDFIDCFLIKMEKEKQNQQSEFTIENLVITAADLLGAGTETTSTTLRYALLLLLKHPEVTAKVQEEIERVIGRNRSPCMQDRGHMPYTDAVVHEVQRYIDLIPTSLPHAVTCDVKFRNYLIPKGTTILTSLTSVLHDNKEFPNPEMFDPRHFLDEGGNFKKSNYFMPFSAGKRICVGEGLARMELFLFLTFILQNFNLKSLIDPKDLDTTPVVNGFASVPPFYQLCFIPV

Compound: COC(=O)C(C)NC(=O)C1CCCN1S(=O)(=O)c1cc(C)c(Cl)cc1C (stereo not given)
- IC50 [1]: > 50 µM (inactive)

Compound: CN(C)CC(=O)N1c2ccccc2CCc2ccc(NC(=O)c3ccc(N)cc3)cc21
- IC50 [2]: 15.6 µM (active)

Compound: CCCn1c(N=C(S)Nc2ccccc2)nc2ccccc21
- IC50 [3]: 112 µM (inactive)

Compound: Cc1cccc(-n2c(SCCC(=O)O)nnc2-c2cccs2)c1C
- IC50 [4]: > 50 µM (not active)

Compound: Cc1cc(C)cc(OCC(=O)NNC(=O)c2ccccn2)c1
- CC50 [5]: 11.4 µM (active)
- IC50 [6]: > 20 µM (inactive)

Compound: Nc1cccc(Nc2nc(OC(C(F)(F)F)C(F)(F)F)nc(OC(C(F)(F)F)C(F)(F)F)n2)c1
- IC50 [3]: > 122 µM (inactive)

Compound: CCOC(=O)C(=NC(C)CC)NNc1cccc(C(F)(F)F)c1 (stereo not given)
- IC50 [3]: > 122 µM (inactive)

Compound: CCc1nnc(NC(=O)C2Cc3ccccc3CN2S(=O)(=O)c2cccs2)s1 (stereo not given)
- IC50 [2]: > 50 µM (not active)

Compound: CCOc1ccc(S(=O)(=O)N(C(=O)c2ccco2)c2cc3sc(=O)oc3c3ccccc23)cc1
- AC50 [7]: 4.42 µM (active)
- CC50 [5]: 31.6 µM (active)

Compound: N#CCCS(=O)(=O)c1nnnn1-c1ccccc1
- IC50 [4]: > 50 µM (not active)
- IC50 [2]: > 50 µM (not active)

Compound: Cc1cc(C)cc(OCc2nc3cc(Br)c[nH]c-3n2)c1
- IC50 [2]: > 50 µM (not active)

Compound: O=C(C1=C[C@H](c2ccc(Br)cc2)C[C@H](OCc2ccc(CO)cc2)O1)N1CCN(Cc2ccc3c(c2)OCO3)CC1
- CC50 [5]: 32 µM (active)

Compound: CCOc1cc(NC(=O)c2ccc(C)cc2)c(OCC)cc1N=C(S)NCCCN1CCOCC1
- IC50 [1]: > 50 µM (inactive)

Compound: Cc1ccc(NC(S)=NNC(=O)c2nnn(-c3ccccc3)c2C)cc1
- IC50 [3]: > 122 µM (inactive)

Compound: Cc1c(Cl)cccc1Nc1nc(N)nc(CN2CCc3ccccc3C2)n1
- IC50 [1]: > 50 µM (inactive)

Compound: CCc1cccc2c(C(=O)COC(=O)/C=C/c3ccc(O)c(OC)c3)c[nH]c12
- EC50 [8]: > 150 µM (not active)
- EC50 [9]: 41.1 µM (active)
- CC50 [5]: > 40 µM (active)
- EC50 [10]: 8.62 µM (active)

Compound: c1ccc(CNC2=NN=C(c3cc4ccccc4o3)CS2)cc1
- IC50 [11]: 2.66 µM (not active)

Compound: N#Cc1c(N/C=C2\C(=O)NC(=O)N(Cc3ccco3)C2=O)sc2c1CCCC2
- IC50 [4]: > 50 µM (not active)
- IC50 [12]: 32.6 µM (active)

Compound: COc1cc(OC)cc(-c2nnc(NC(=O)CCS(=O)(=O)c3ccc(C)cc3)o2)c1
- CC50 [5]: 32.4 µM (active)

Compound: CCOC(=O)c1c(C)oc2c1c(/C=N/C1CCS(=O)(=O)C1)c(O)c1ccccc12 (stereo not given)
- IC50 [13]: > 50 µM (not active)
- IC50 [2]: 16 µM (active)
- AC50 [14]: 1.78 µM (inconclusive)

Compound: COc1ccc(S(=O)(=O)Nc2ccc3c(c2)C(=O)N([C@H](C)CO)C[C@H](C)[C@H](CN(C)C(=O)Nc2ccc(C(F)(F)F)cc2)OCCCC[C@@H](C)O3)cc1
- AC50 [15]: 2.64 µM (active)

Compound: C[C@@H]1CN([C@H](C)CO)C(=O)c2cccc(NC(=O)NC3CCCCC3)c2O[C@@H]1CN(C)Cc1ccc(-c2ccccc2)cc1
- AC50 [15]: 3.37 µM (active)

Compound: Cc1ccc(S(=O)(=O)Nc2ccc3c(c2)C(=O)N([C@H](C)CO)C[C@H](C)[C@H](CN(C)Cc2ccc(C(=O)Nc4ccccc4N)cc2)OCCCC[C@@H](C)O3)cc1
- AC50 [15]: 2.44 µM (active)

Compound: C[C@H]1CN([C@@H](C)CO)C(=O)Cc2cc(NS(=O)(=O)c3ccc(F)cc3)ccc2O[C@@H]1CN(C)Cc1ccc(C(F)(F)F)cc1
- AC50 [15]: 4.8 µM (active)

Compound: Cc1ccc(S(=O)(=O)Nc2cccc3c2O[C@@H](CN(C)Cc2ccc(-c4ccccc4)cc2)[C@@H](C)CN([C@H](C)CO)C3=O)cc1
- AC50 [15]: 3.16 µM (active)

Compound: Cc1ccc(S(=O)(=O)Nc2cccc3c2O[C@@H](CN(C)Cc2ccc(C(=O)Nc4ccccc4N)cc2)[C@H](C)CN([C@@H](C)CO)C3=O)cc1
- AC50 [15]: 3.2 µM (active)

Compound: CCCCNc1c(-c2ccc(SC3CCCCC3)c(OC)c2)nc2ccc(C)cn12
- AC50 [16]: 3.1 µM (active)
- CC50 [17]: > 40 µM (active)

Compound: Cc1ccccc1-c1ccc([C@@H]2[C@@H](CO)N3CCCCN(C(=O)NC4CCCC4)C[C@H]23)cc1
- AC50 [18]: 52.2 µM (active)
- AC50 [19]: 21.6 µM (active)

Compound: C[C@@H]1CN([C@H](C)CO)C(=O)c2cc(NC(=O)Nc3ccc(F)cc3)ccc2O[C@@H](C)CCCCO[C@H]1CN(C)C(=O)C1CCCCC1
- AC50 [18]: 50.3 µM (active)
- AC50 [19]: 5.55 µM (active)

Compound: Cc1ccc(-c2nnc(S)n2/N=C/C=C\c2ccccc2[N+](=O)[O-])cc1
- IC50 [2]: 7.32 µM (active)

Compound: Cn1cc(C(=O)N/N=C/c2ccc([N+](=O)[O-])cc2)c2ccccc21
- IC50 [11]: 1.94 µM (active)

Compound: COc1ccc2c(c1)c[n+](C)c1c3cc(OC)c(OC)cc3ccc21
- IC50 [3]: > 122 µM (inactive)
- AC50 [20]: 0.558 µM (active)
